Laboratory results taken from patent US10829466B2, “Stilbene derivative and preparation method thereof” (BEIJING INSTITUTE OF TECHNOLOGY, priority 2015, dated 2020).
Entries after “also recorded” stand apart in the source; their conditions may differ.

Key:
HEK293 = assay: In vitro cytotoxicity experiment (MTT, cell survival); format: cell-based; details: HEK293, in vitro test, FIG. 3
Experimental: Example 35: In Vitro Cytotoxicity Experiment the Experimental Cell Line is HEK293
Cells are cultured in a 96-well plate at a cell concentration of 5000/well. After 24 hours of cell culture, the drug treatment is performed and the experiment is carried out on two groups: the control group is added with DMSO with the same concentration as that for the experimental group; in the experimental group, each compound is tested at three doses of low, medium and high doses (100 μM; 500 μM; 1000 μM), and five parallels are tested at each dose; in the blank group, a complete medium is added with a compound to be tested with the same concentration as that for the experimental group. Constant temperature incubation is carried out for 24 h in a CO2 incubator, MTT with a final concentration of 0.5 mg/mL is then added; 4 hours later, 200 μL of DMSO solution is added, and the absorbance is measured at 490 nm. The cell survival is calculated according to the absorbance; Survival %=(Average concentration−Blank concentration)/(Average control concentration−Blank concentration)*100%.
Reference is made to FIG. 3 which illustrates an in vitro cytotoxicity test chart of a novel stilbene derivative according to an example of embodiments of the present invention.

[1] = test system: neurogenesis in rat hippocampus; assay: Detection of neurogenesis in rat hippocampus by BrdU labeling (DAB immunohistochemistry); format: in vivo; details: under the test conditions of the embodiments, same dose
Source text: Example 36: Detection of Neurogenesis in Rat Hippocampus by BrdU (5-Bromo-2-deoxy Uridine, 5-bromodeoxyuridine) Labeling
Experimental animals: 10-week-old SD male rats having a body weight of about 300 g are purchased. The rats are used in experiments one week after being adapted to the environment in an animal room. Experimental groups: control group, drug group. 2-3 rats per group. Experimental reagent: injection oil is used to dissolve a compound to be tested. Rates in the control group are injected with the same dose of dissolving oil.
Test method: intraperitoneal injection is carried out 28 days at the injection dose of 0.5 ml-1 ml each time. Dose: 4 mg/Kg.
1) marker injection: BrdU (dissolved in sterile saline solution at a concentration of 10 mg/mL) solution is injected intraperitoneally into rats. (For rats with different body weights, the injection dose of BrdU is 50 mg·Kg^−1, injection is carried out twice every 2 hour; the intraperitoneal injection 24 hours before anesthesia ends.
2) Anesthesia: Anesthesia is performed by intraperitoneal injection of sodium pentobarbital solution into rats. (For rats with different body weights, the injection dose of sodium pentobarbital is usually 70 mg·Kg^−1.)
3) Cardiac perfusion: cardiac perfusion with normal saline is performed according to a general method.
4) Taking of brain tissues: The heads of the rats are separated from the bodies with surgical forceps and scissors, and then the muscles and membrane tissues at the top of the skulls are removed and brains are then gently peeled from the skulls. The separated brains are soaked in 4% paraformaldehyde for 24-48 hours.
5) Dehydration of brain tissues: the fixed tissues are soaked with a 20% sucrose PBS solution for more than 72 hours, and then the brain tissues are soaked with a 30% sucrose PBS solution for more than 72 hours.
6) Frozen section: the brain tissues are cut into […] thick sections by a general coronal section procedure.
7) DAB immunohistochemistry step: DNA denaturation is carried out and the sections are transferred to a 24-well plate (pH 7.4) perfused with 0.1 M PBS. The brain sections are incubated with 1% H2O2 for 30 minutes to remove […]; the sections are then treated with a 2M HCl solution for 30 minutes at room temperature to denature them. After completion of the denaturation, the brain sections are immersed in a 0.1 M sodium borate (pH 8.5) solution for 5 minutes and rinsed twice; the brain sections are incubated in 0.5% PBST for 1 hour at room temperature, and then are blocked for 1 hour with a serum blocking solution on a shaker at room temperature, and the serum blocking solution is from the same source as a secondary antibody; the samples are treated on the shaker with a BrdU primary antibody overnight at 4° C., and the BrdU primary antibody is diluted with the blocking solution; the samples are incubated with the biotinylated secondary antibody IgG for 2 hours at room temperature; a C (ABC kit) solution is incubated at room temperature for 2 hours; finally, after 3 to 5 minutes of color development by the DAB kit, the samples are mounted by using a PVP mounting medium and then dried, and finally the experimental results are detected under a microscope.
The dose-effect relationships of different compounds is further tested according to the method of Example 36, and the compounds include WS-54 (E-4-isobutyrylamino-3′,4′-methylenedioxy-stilbene), WS-69 (E-4-Methylsulfonamino-3′,4′-methylenedioxy-stilbene), WS-70 (E-4-Benzamino-3′,4′-methylenedioxy-stilbene), and WS-74 (E-4-Cyclopropylformamino-3′,4′-methylenedioxy-stilbene).

[2] = test system: neurogenesis in rat hippocampus; assay: BrdU and NeuN fluorescence double staining; format: in vivo
Experimental: Example 37: Experimental Procedure of BrdU and NeuN Fluorescence Double Staining
The samples are obtained in the same manner as an Example 34. First, the DNA denaturation is performed, and the sections are transferred to a HCl solution perfused with 2 N, and treated at 37° C. for 60 minutes to be denatured. After completion of the denaturation, the brain sections are immersed in a 0.1 M sodium borate (pH 8.5) solution for 5 minutes and rinsed twice; the brain sections are then blocked for 1 hour with a serum blocking solution on a shaker at room temperature, and the serum blocking solution is from the same source as a secondary antibody; the samples are treated on the shaker with BrdU (1:500, Millipore) and NeuN (1:500, Abcam) primary antibodies overnight at 4° C., and the primary antibodies are diluted with the blocking solution; the samples are incubated with fluorescent secondary antibodies goat anti-mouse and goat anti-rabbits at room temperature (1:50, Zhongshanjinqiao) for 2 hours at room temperature in a dark place; the samples are mounted by using a fluorescent anti-quenching PVP mounting medium and then dried, and finally the experimental results are detected under a microscope. Control group and drug group (low dose L, 2 mg/Kg; medium dose M, 4 mg/Kg).

Compound: CC(=O)Nc1ccc(/C=C/c2ccc3c(c2)OCO3)cc1 [WS-6, E-4-acetylamino-3′,4′-methylenedioxy-stilbene]
- neuronal cytotoxicity / neurotoxicity (in words) (HEK293): further reduced in neurotoxicity as compared with WS-61; also recorded: greatly reduced
- neurogenesis activity (in words) [1]: better neurogenesis activity
- dose relationship of NeuN+BrdU+ spots ([2]; 4 mg/Kg over 2 mg/Kg): can further enhance neurogenesis at the dose of 4 mg/Kg over the dose of 2 mg/Kg
- BrdU and NeuN double staining: neurogenesis ([2]; low dose 2 mg/Kg and medium dose 4 mg/Kg, FIG. 9): can promote neurogenesis
